Measured values taken from US11578061B2, “Inhibitors of LRRK2 kinase” (Halia Therapeutics, Inc., priority 2021, dated 2023).

molecular target: recombinant human LRRK2 (catalytic domain only [amino acids 970-2527], GST-tagged) (Homo sapiens (Human), UniProt Q5S007); experiment: LRRK2 Enzymatic Assay; format: biochemical; settings: LRRKtide substrate, [32P]-ATP
Method: LRRKtide substrate (peptide sequence RLGRDKYKTLRQIRQ, derived from human ezrin [amino acids 561-573], moesin [amino acids 539-553] and radixin [amino acids 558-570], obtained from SignalChem, catalogue #L10-58, reconstituted in 20 mM Tris-HCl at pH 7.5 to a final concentration of 1 mg/mL, assay concentration 20 μM) and recombinant human LRRK2 (catalytic domain only [amino acids 970-2527], GST-tagged, expressed in insect cells, obtained from ThermoFisher Scientific, catalogue #PV4874, 0.35 mg/mL, assay concentration 30 nM) were mixed in assay buffer (20 mM Hepes pH 7.5, 10 mM MgCl2, 1 mM EGTA, 0.02% Brij35, 0.02 mg/ml BSA, 0.1 mM Na3VO4, 2 mM DTT, 1% DMSO). Compounds of interest (in DMSO, serial 3-fold dilution from 10 μM to 0.5 nM) or control (1% DMSO) were dispensed into the kinase reaction mixture by Acoustic technology (Echo550; nanoliter range). After incubation at room temperature for 20 minutes, the kinase reaction was initiated by addition of [^32P]-ATP (Specific activity 10 μCi/μl) and the mixture was incubated at room temperature for 2 hours. The reaction was then stopped by spotting the reaction mixture on strips of phosphocellulose P81 paper. Following washing, the radioactivity of the P81 paper was measured and kinase activity data were expressed as the percent remaining kinase activity in test samples compared to vehicle (dimethyl sulfoxide) reactions. IC50 values and curve fits were obtained using Prism (GraphPad Software).

Chain of recombinant human LRRK2 (catalytic domain only [amino acids 970-2527], GST-tagged) (Q5S007 970-2527): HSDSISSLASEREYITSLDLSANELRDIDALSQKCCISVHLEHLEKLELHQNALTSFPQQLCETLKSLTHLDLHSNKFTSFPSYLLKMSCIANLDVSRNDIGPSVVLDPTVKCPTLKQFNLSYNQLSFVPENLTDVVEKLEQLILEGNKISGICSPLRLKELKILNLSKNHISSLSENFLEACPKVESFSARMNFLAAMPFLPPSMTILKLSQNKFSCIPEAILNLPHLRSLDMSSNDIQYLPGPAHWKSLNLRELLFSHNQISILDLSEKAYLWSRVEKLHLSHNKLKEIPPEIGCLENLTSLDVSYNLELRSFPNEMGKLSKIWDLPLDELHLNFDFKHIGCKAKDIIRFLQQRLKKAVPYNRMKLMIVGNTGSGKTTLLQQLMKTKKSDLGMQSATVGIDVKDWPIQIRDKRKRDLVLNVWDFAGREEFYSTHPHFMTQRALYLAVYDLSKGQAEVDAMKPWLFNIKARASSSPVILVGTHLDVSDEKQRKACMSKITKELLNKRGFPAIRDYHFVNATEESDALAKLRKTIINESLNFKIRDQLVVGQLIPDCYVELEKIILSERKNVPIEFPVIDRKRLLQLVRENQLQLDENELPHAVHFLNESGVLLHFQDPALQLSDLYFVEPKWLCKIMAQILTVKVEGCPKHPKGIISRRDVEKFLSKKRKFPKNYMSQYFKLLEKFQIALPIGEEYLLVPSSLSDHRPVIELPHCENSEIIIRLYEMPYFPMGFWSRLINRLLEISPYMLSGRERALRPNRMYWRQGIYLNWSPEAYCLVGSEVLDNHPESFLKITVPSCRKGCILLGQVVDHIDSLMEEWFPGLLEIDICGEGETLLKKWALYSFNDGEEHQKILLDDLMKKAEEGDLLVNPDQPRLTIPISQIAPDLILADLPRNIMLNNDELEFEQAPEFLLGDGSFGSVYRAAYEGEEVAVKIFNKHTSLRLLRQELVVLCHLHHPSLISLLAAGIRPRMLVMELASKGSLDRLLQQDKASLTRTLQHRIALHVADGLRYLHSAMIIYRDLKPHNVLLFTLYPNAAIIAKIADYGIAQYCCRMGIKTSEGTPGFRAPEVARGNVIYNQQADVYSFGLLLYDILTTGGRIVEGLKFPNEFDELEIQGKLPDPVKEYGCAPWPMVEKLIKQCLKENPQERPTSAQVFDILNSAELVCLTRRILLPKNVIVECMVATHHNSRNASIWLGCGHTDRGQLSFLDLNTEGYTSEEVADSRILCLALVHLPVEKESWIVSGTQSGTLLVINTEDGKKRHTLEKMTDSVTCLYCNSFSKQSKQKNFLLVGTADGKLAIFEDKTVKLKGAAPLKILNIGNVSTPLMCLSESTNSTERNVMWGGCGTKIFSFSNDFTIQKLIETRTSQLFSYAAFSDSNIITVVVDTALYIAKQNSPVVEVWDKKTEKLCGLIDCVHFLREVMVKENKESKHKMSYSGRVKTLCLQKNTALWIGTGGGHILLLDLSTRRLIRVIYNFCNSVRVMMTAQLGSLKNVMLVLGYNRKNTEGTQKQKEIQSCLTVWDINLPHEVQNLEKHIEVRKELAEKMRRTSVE

Row | Structure (SMILES) | IC50
1 | C[C@@H]1CN(c2ccc(Nc3ncc(F)c(OCC4CCC(C)(O)CC4)n3)cc2)C[C@H](C)O1 (stereo partly drawn) [Example 252, 4-(((2-((4-((2S,6R)-2,6-dimethylmorpholino)phenyl)amino)-5-fluoropyrimidin-4-yl)oxy)methyl)-1-methylcyclohexan-1-ol] | < 50 nM
2 | Cc1nn(C(C)(C)C#N)cc1Nc1ncc(Cl)c(OCC2CC3(CNC3)C2)n1 [Example 28, 2-(4-((4-((2-azaspiro[3.3]heptan-6-yl)methoxy)-5-chloropyrimidin-2-yl)amino)-3-methyl-1H-pyrazol-1-yl)-2-methylpropanenitrile] | < 50 nM
3 | O[C@H]1CC[C@H](COc2nc(Nc3cnn(CCF)c3)ncc2F)CC1 [Example 224, (1R,4R)-4-(((5-fluoro-2-((1-(2-fluoroethyl)-1H-pyrazol-4-yl)amino)pyrimidin-4-yl)oxy)methyl)cyclohexan-1-ol] | < 50 nM
4 | Cc1nn(C2CC(C#N)C2)cc1Nc1ncc(Cl)c(OCC2CCN(C)CC2F)n1 (stereo not drawn) [Example 63, 3-(4-((5-chloro-4-((3-fluoro-1-methylpiperidin-4-yl)methoxy)pyrimidin-2-yl)amino)-3-methyl-1H-pyrazol-1-yl)cyclobutane-1-carbonitrile] | > 400 nM
5 | O=C(N[C@H]1CC[C@@H](COc2nc(Nc3ccc(N4CCOCC4)cc3)ncc2Cl)C1)C(F)F [Example 102, N-((1S,3R)-3-(((5-chloro-2-((4-morpholino-phenyl)amino)pyrimidin-4-yl)oxy)methyl)cyclopentyl)-2,2-difluoro-acetamide] | < 50 nM
6 | C[C@@H]1CN(c2ccc(Nc3ncc(F)c(OCC45CCC(O)(CC4)CC5)n3)cc2)C[C@H](C)O1 [Example 143, 4-(((2-((4-((2S,6R)-2,6-dimethylmorpholino)phenyl)amino)-5-fluoropyrimidin-4-yl)oxy)methyl)bicyclo[2.2.2]octan-1-ol] | 50 to 200 nM
7 | COc1cnc(Nc2ccc(N3CCOCC3)cc2)nc1OC[C@H]1CC[C@H](CN)CC1 [Example 13, 4-(((1R,4R)-4-(aminomethyl)cyclohexyl)methoxy)-5-methoxy-N-(4-morpholinophenyl) pyrimidin-2-amine] | < 50 nM
8 | Cc1nn(C(C)(C)C#N)cc1Nc1ncc(F)c(OCC2CCC(O)(C(F)(F)F)CC2)n1 (stereo not drawn) [Example 262, 2-(4-((5-fluoro-4-((4-hydroxy-4-(trifluoromethyl)cyclohexyl)methoxy)pyrimidin-2-yl)amino)-3-methyl-1H-pyrazol-1-yl)-2-methylpropanenitrile] | 50 to 200 nM
9 | FC(F)(F)CN1CCC(COc2nc(Nc3ccc(N4CCOCC4)cc3)ncc2Cl)CC1 [Example 114, 5-chloro-N-(4-morpholino-phenyl)-4-((1-(2,2,2-trifluoroethyl)piperidin-4-yl)methoxy) pyrimidin-2-amine] | > 400 nM
10 | CCN1CCN(c2ccc(Nc3nccc(OCC4CCC(O)CC4)n3)nc2)CC1 (stereo not drawn) [Example 133, 4-(((2-((5-(4-ethylpiperazin-1-yl)pyridin-2-yl)amino)pyrimidin-4-yl)oxy)methyl)cyclohexan-1-ol] | > 400 nM
11 | N[C@H]1CC[C@@H](COc2nc(Nc3ccc(N4CCOCC4)cc3)ncc2Cl)C1 [Example 16, 4-(((1R,3S)-3-aminocyclopentyl)methoxy)-5-chloro-N-(4-morpholinophenyl) pyrimidin-2-amine] | < 50 nM
12 | COc1nn(C(C)C)cc1Nc1ncc(F)c(OC[C@H]2CC[C@H](O)CC2)n1 [Example 244, (1R,4R)-4-(((5-fluoro-2-((1-isopropyl-3-methoxy-1H-pyrazol-4-yl)amino)pyrimidin-4-yl)oxy)methyl)cyclohexan-1-ol] | > 400 nM
13 | COc1cnc(Nc2ccc(N3CCOCC3)cc2)nc1OC[C@H]1CC[C@H](NCC(F)(F)F)CC1 [Example 105, 5-methoxy-N-(4-morpholino-phenyl)-4-(((1R,4R)-4-((2,2,2-trifluoroethyl)amino)cyclohexyl)methoxy) pyrimidin-2-amine] | 50 to 200 nM
14 | Cc1nn(C(C)(C)C#N)cc1Nc1ncc(Cl)c(OCC2CC3(C2)CN(C)C3)n1 [Example 70, 2-(4-((5-chloro-4-((2-methyl-2-azaspiro[3.3]heptan-6-yl)methoxy)pyrimidin-2-yl)amino)-3-methyl-1H-pyrazol-1-yl)-2-methylpropanenitrile] | < 50 nM
15 | Fc1cnc(Nc2ccc(N3CCOCC3)cc2)nc1OCC1CCNCC1(F)F (stereo not drawn) [Example 29, 4-((3,3-difluoropiperidin-4-yl)methoxy)-5-fluoro-N-(4-morpholinophenyl) pyrimidin-2-amine] | < 50 nM
16 | C[C@@H]1CN(c2ccc(Nc3ncc(F)c(OCC4CCC(O)CC4)n3)cc2)C[C@H](C)O1 (stereo partly drawn) [Example 124, 4-(((2-((4-((2S,6R)-2,6-dimethylmorpholino)phenyl)amino)-5-fluoropyrimidin-4-yl)oxy)methyl)cyclohexan-1-ol] | < 50 nM
17 | COCCn1ncc(Nc2ncc(F)c(OC[C@H]3CC[C@H](NC(C)=O)CC3)n2)c1Cl [Example 205, N-((1R,4R)-4-(((2-((5-chloro-1-(2-methoxyethyl)-1H-pyrazol-4-yl)amino)-5-fluoropyrimidin-4-yl)oxy)methyl)cyclo-hexyl)acetamide] | < 50 nM
18 | COc1nn(C(C)C)cc1Nc1ncc(F)c(OC[C@H]2CC[C@H](NC(=O)C(F)(F)F)CC2)n1 [Example 213, 2,2,2-trifluoro-N-((1R,4R)-4-(((5-fluoro-2-((1-isopropyl-3-methoxy-1H-pyrazol-4-yl)amino)pyrimidin-4-yl)oxy)methyl)cyclohexyl) acetamide] | < 50 nM
19 | CCO[C@H]1CC[C@@H](COc2nc(Nc3cn(C(C)(C)C#N)nc3C)ncc2F)CC1 [Example 277, 2-(4-((4-(((1s,4s)-4-ethoxycyclohexyl)methoxy)-5-fluoropyrimidin-2-yl)amino)-3-methyl-1H-pyrazol-1-yl)-2-methylpropanenitrile] | < 50 nM
20 | Cc1nn(C(C)(C)C#N)cc1Nc1ncc(F)c(OCC2CCNCC2F)n1 (single isomer, unassigned) [Example 170, 2-(4-((5-fluoro-4-((3-fluoropiperidin-4-yl)methoxy)pyrimidin-2-yl)amino)-3-methyl-1H-pyrazol-1-yl)-2-methylpropanenitrile] | 50 to 200 nM
21 | Cc1nn(C(C)(C)C#N)cc1Nc1nc(Cl)c(F)c(OC[C@H]2CC[C@H](O)CC2)n1 [Example 248, 2-(4-((4-chloro-5-fluoro-6-(((1R,4R)-4-hydroxycyclohexyl)methoxy)pyrimidin-2-yl)amino)-3-methyl-1H-pyrazol-1-yl)-2-methylpropanenitrile] | > 400 nM
22 | COc1cc(C(=O)N2CCOCC2)c(F)cc1Nc1ncc(F)c(OC[C@H]2CC[C@H](O)CC2)n1 [Example 214, (2-fluoro-4-((5-fluoro-4-(((1R,4R)-4 hydroxycyclohexyl)methoxy)pyrimidin-2-yl)amino)-5-methoxyphenyl)(morpholino)methanone] | 50 to 200 nM
23 | C[C@@H]1CN(c2ccc(Nc3ncc(C4CC4)c(OCC4CCC(O)CC4)n3)cc2)C[C@H](C)O1 (stereo partly drawn) [Example 129, 4-(((5-cyclopropyl-2-((4-((2S,6R)-2,6-dimethylmorpholino)phenyl)amino)pyrimidin-4-yl)oxy)methyl)cyclohexan-1-ol] | < 50 nM
24 | OCC1CCC(COc2ccnc(Nc3ccc(N4CCOCC4)cc3)n2)CC1 (stereo not drawn) [Example 139, (4-(((2-((4-morpholinophenyl)amino)pyrimidin-4-yl)oxy)methyl)cyclohexyl)methanol22] | 50 to 200 nM
25 | Cc1nn(C(C)(C)C#N)cc1Nc1ncc(Cl)c(OC[C@H]2CC[C@H](C(C)(C)O)CC2)n1 [Example 138, 2-(4-((5-chloro-4-(((1R,4R)-4-(2-hydroxypropan-2-yl)cyclohexyl)methoxy)pyrimidin-2-yl)amino)-3-methyl-1H-pyrazol-1-yl)-2-methylpropanenitrile] | < 50 nM
26 | CC(=O)N[C@H]1CC[C@H](COc2nc(Nc3ccc(N4C5CCC4COC5)cc3)ncc2F)CC1 [Example 181, N-((1R,4R)-4-(((2-((4-(3-oxa-8-azabicyclo[3.2.1]octan-8-yl)phenyl)amino)-5-fluoropyrimidin-4-yl)oxy)methyl)cyclo-hexyl)acetamide] | < 50 nM
27 | C[C@@H]1CN(c2ccc(Nc3ncc(F)c(OCC4CCC(F)(F)CC4)n3)cc2)C[C@H](C)O1 [Example 269, 4-((4,4-difluorocyclohexyl)methoxy)-N-(4-((2R,6S)-2,6-dimethylmorpholino)phenyl)-5-fluoropyrimidin-2-amine] | 200 to 400 nM
28 | Cc1nn(C2CC(C#N)C2)cc1Nc1ncc(Cl)c(OCC2(F)CCN(C)CC2)n1 (stereo not drawn) [Example 62, 3-(4-((5-chloro-4-((4-fluoro-1-methylpiperidin-4-yl)methoxy)pyrimidin-2-yl)amino)-3-methyl-1H-pyrazol-1-yl)cyclobutane-1-carbonitrile] | 200 to 400 nM
29 | FC(F)CN[C@H]1CC[C@H](COc2ccnc(Nc3ccc(N4CCOCC4)cc3)n2)CC1 [Example 103, 4-(((1R,4R)-4-((2,2-difluoro-ethyl)amino)cyclohexyl)methoxy)-N-(4-morpholino-phenyl) pyrimidin-2-amine] | < 50 nM
30 | Cc1nn(C(C)(C)C#N)cc1Nc1ncc(F)c(OC[C@H]2CC[C@@H](O)[C@H](F)C2)n1 [Example 259] | < 50 nM
